The values below are quoted from earlier work in patent publication US11267839B2, “Crystalline forms of LNT” (GLYCOM A/S, priority 2015, dated 2022).

The conditions of the series: prior-art crystalline LNT from aqueous ethanol, after drying.

Regarding `CC(=O)N[C@H]1[C@H](O[C@H]2[C@@H](O)[C@@H](CO)O[C@@H](O[C@H]3[C@H](O)[C@@H](O)C(O)O[C@@H]3CO)[C@@H]2O)O[C@H](CO)[C@@H](O)[C@@H]1O[C@@H]1O[C@H](CO)[C@H](O)[C@H](O)[C@H]1O` (stereo partly shown) [LNT, Galpβ1-3GlcNAcpβ1-3Galpβ1-4Glc], the “weight taken back when stored in air (hygroscopic)” value is on record as “around 8 % of its weight”.
